Assay results as given in PubChem BioAssay AID2060500 (Molecular Pharmacology Branch, DTP, NCI, 2025).

System: 596521-263-R-J1-PDC complex spheroids, viability % of control
Test: Anticancer human tumor 596521-263-R-J1-PDC patient-derived soft tissue sarcoma cell line growth inhibition [GQUAD]
Settings: for IC50: curve of first compound; for viability, T/C: stronger effect = lower value
In short: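 Viability of tumor cells grown as complex spheroids with endothelial and stromal cells, exposed to drug combinations. Top concentration at or near clinical Cmax (else 10 microM), diluted in half-log increments.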

[1] = second compound 0.0316 µM, first compound 0.0316 µM
[2] = second compound 0.0316 µM, first compound 0.1 µM
[3] = second compound 0.0316 µM, first compound 0.316 µM
[4] = second compound 0.0316 µM, first compound 1 µM
[5] = second compound 0.0316 µM, first compound 3.16 µM
[6] = second compound 0.0316 µM, first compound 10 µM
[7] = second compound 0.1 µM, first compound 0.0316 µM
[8] = second compound 0.1 µM, first compound 0.1 µM
[9] = second compound 0.1 µM, first compound 0.316 µM
[10] = second compound 0.1 µM, first compound 1 µM
[11] = second compound 0.1 µM, first compound 3.16 µM
[12] = second compound 0.1 µM, first compound 10 µM
[13] = second compound 0.316 µM, first compound 0.0316 µM
[14] = second compound 0.316 µM, first compound 0.1 µM
[15] = second compound 0.316 µM, first compound 0.316 µM
[16] = second compound 0.316 µM, first compound 1 µM
[17] = second compound 0.316 µM, first compound 3.16 µM
[18] = second compound 0.316 µM, first compound 10 µM
[19] = second compound 1 µM, first compound 0.0316 µM
[20] = second compound 1 µM, first compound 0.1 µM
[21] = second compound 1 µM, first compound 0.316 µM
[22] = second compound 1 µM, first compound 1 µM
[23] = second compound 1 µM, first compound 3.16 µM
[24] = second compound 1 µM, first compound 10 µM
[25] = second compound 3.16 µM, first compound 0.0316 µM
[26] = second compound 3.16 µM, first compound 0.1 µM
[27] = second compound 3.16 µM, first compound 0.316 µM
[28] = second compound 3.16 µM, first compound 1 µM
[29] = second compound 3.16 µM, first compound 3.16 µM
[30] = second compound 3.16 µM, first compound 10 µM
[31] = second compound 10 µM, first compound 0.0316 µM
[32] = second compound 10 µM, first compound 0.1 µM
[33] = second compound 10 µM, first compound 0.316 µM
[34] = second compound 10 µM, first compound 1 µM
[35] = second compound 10 µM, first compound 3.16 µM
[36] = second compound 10 µM, first compound 10 µM
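Further: spheroids exposed to drugs for 7 days before viability reading.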
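Wherever viability, T/C is given: 100% = DMSO vehicle control viability.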

In the case of C=CC(=O)N1CCN(c2nc(=O)n(-c3c(C)ccnc3C(C)C)c3nc(-c4c(O)cccc4F)c(F)cc23)C(C)C1 (centres undefined) + Cc1cnc(CNC(=O)c2c(=O)c3ccc(N4CCCN(C)CC4)nc3n3c2sc2ccccc23)cn1, the IC50 (second compound 0.0316 µM) is reported as greater than 10 µM, the IC50 (second compound 0.1 µM) is reported as greater than 10 µM and the IC50 (second compound 0.316 µM) is reported as greater than 10 µM. The IC50 (second compound 1 µM) was greater than 10 µM, the IC50 (second compound 3.16 µM) was greater than 10 µM and the IC50 (second compound 10 µM) was less than 0.0316 µM. The viability, T/C [1] was 104%, the viability, T/C [2] was 101% and the viability, T/C [3] was 103%. It also gave a viability, T/C [4] of 112%, a viability, T/C [5] of 108% and a viability, T/C [6] of 75.8%. The viability, T/C [7] was 88.3%, the viability, T/C [8] was 86.1% and the viability, T/C [9] was 91.8%. It also gave a viability, T/C [10] of 107%, a viability, T/C [11] of 103% and a viability, T/C [12] of 77.6%. For the same compound, the viability, T/C [13] was 89.5%, the viability, T/C [14] was 85.1% and the viability, T/C [15] was 90.5%. For the same compound, the viability, T/C [16] was 81.1%, the viability, T/C [17] was 92.4% and the viability, T/C [18] was 69.1%. It also gave a viability, T/C [19] of 67.8%, a viability, T/C [20] of 64.8% and a viability, T/C [21] of 67%. For the same compound, the viability, T/C [22] was 71.2%, the viability, T/C [23] was 76.7% and the viability, T/C [24] was 63.2%. It also gave a viability, T/C [25] of 57.2%, a viability, T/C [26] of 56.5% and a viability, T/C [27] of 61.8%. For the same compound, the viability, T/C [28] was 60%, the viability, T/C [29] was 81.4% and the viability, T/C [30] was 61.8%. It also gave a viability, T/C [31] of 51.1%, a viability, T/C [32] of 30.9% and a viability, T/C [33] of 48.6%. The viability, T/C [34] was 51%, the viability, T/C [35] was 63.7% and the viability, T/C [36] was 39.5%.
CC(=O)O[C@H]1C(=O)[C@@]2(C)[C@H]([C@H](OC(=O)c3ccccc3)[C@]3(O)C[C@H](OC(=O)[C@H](O)[C@@H](NC(=O)c4ccccc4)c4ccccc4)C(C)=C1C3(C)C)[C@]1(OC(C)=O)CO[C@@H]1C[C@@H]2O + Cc1cnc(CNC(=O)c2c(=O)c3ccc(N4CCCN(C)CC4)nc3n3c2sc2ccccc23)cn1 gave an IC50 (second compound 0.0316 µM) of less than 0.0316 µM, an IC50 (second compound 0.1 µM) of less than 0.0316 µM and an IC50 (second compound 0.316 µM) of less than 0.0316 µM. For the same compound, the IC50 (second compound 1 µM) was less than 0.0316 µM, the IC50 (second compound 3.16 µM) was less than 0.0316 µM and the IC50 (second compound 10 µM) was less than 0.0316 µM. For the same compound, the viability, T/C [1] was 44%, the viability, T/C [2] was 30.7% and the viability, T/C [3] was 23.5%. It also gave a viability, T/C [4] of 27.8%, a viability, T/C [5] of 25.9% and a viability, T/C [6] of 28%. It also gave a viability, T/C [7] of 43.7%, a viability, T/C [8] of 25.2% and a viability, T/C [9] of 28.9%. For the same compound, the viability, T/C [10] was 28.8%, the viability, T/C [11] was 29.3% and the viability, T/C [12] was 28.9%. It also gave a viability, T/C [13] of 38.5%, a viability, T/C [14] of 30.4% and a viability, T/C [15] of 25.1%. For the same compound, the viability, T/C [16] was 28.1%, the viability, T/C [17] was 29% and the viability, T/C [18] was 30.8%. It also gave a viability, T/C [19] of 36.5%, a viability, T/C [20] of 32.5% and a viability, T/C [21] of 28.5%. It also gave a viability, T/C [22] of 27.9%, a viability, T/C [23] of 27.7% and a viability, T/C [24] of 31.1%. For the same compound, the viability, T/C [25] was 35.4%, the viability, T/C [26] was 28.1% and the viability, T/C [27] was 24.5%. It also gave a viability, T/C [28] of 25.5%, a viability, T/C [29] of 27.6% and a viability, T/C [30] of 32.2%. It also gave a viability, T/C [31] of 7.69%, a viability, T/C [32] of 8.44% and a viability, T/C [33] of 7.94%. It also gave a viability, T/C [34] of 7.65%, a viability, T/C [35] of 0.28% and a viability, T/C [36] of 0.22%.
